Measurements as given in ChEMBL document CHEMBL1909294, “Translating clinical findings into knowledge in drug safety evaluation--drug induced liver injury prediction system (DILIps)” (PLoS Comput Biol, 2011).

How the values were obtained:
[1] = test system: Hepatotoxicity;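 on HepSE bilirubinemia: bilirubinemia hepatic side effect score drawn from the DILIps training data, a prediction system for drug-induced liver injury; call rule not given here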;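 on HepSE cholecystitis: Cholecystitis-related hepatic side effect score drawn from the DILIps (drug-induced liver injury prediction) training data set; call rule not given here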;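 on HepSE cholelithiasis: hepatic side effect score for cholelithiasis, drawn from the DILIps training data for predicting drug-induced liver injury; call rule not given here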;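 on HepSE cirrhosis: cirrhosis hepatic side effect score taken from the DILIps (drug-induced liver injury prediction) training set; call rule not given here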;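 on HepSE elevated liver function tests: hepatic side effect score for raised liver function tests, as recorded in the DILIps training set used for predicting drug-induced liver injury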; on HepSE hepatic failure: call rule not given here;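 on HepSE hepatomegaly: hepatic side effect score for hepatomegaly, taken from the training set of the DILIps drug-induced liver injury prediction system; call rule not given here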
[2] = test system: Hepatotoxicity; remark: listed apart in the source;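 on HepSE bilirubinemia: bilirubinemia hepatic side effect score drawn from the DILIps training data, a prediction system for drug-induced liver injury; call rule not given here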;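 on HepSE cholecystitis: Cholecystitis-related hepatic side effect score drawn from the DILIps (drug-induced liver injury prediction) training data set; call rule not given here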;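 on HepSE cholelithiasis: hepatic side effect score for cholelithiasis, drawn from the DILIps training data for predicting drug-induced liver injury; call rule not given here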;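 on HepSE cirrhosis: cirrhosis hepatic side effect score taken from the DILIps (drug-induced liver injury prediction) training set; call rule not given here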;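 on HepSE elevated liver function tests: hepatic side effect score for raised liver function tests, as recorded in the DILIps training set used for predicting drug-induced liver injury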; on HepSE hepatic failure: call rule not given here;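 on HepSE hepatomegaly: hepatic side effect score for hepatomegaly, taken from the training set of the DILIps drug-induced liver injury prediction system; call rule not given here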
[3] = test system: Hepatotoxicity; remark: listed apart in the source;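 on HepSE bilirubinemia: bilirubinemia hepatic side effect score drawn from the DILIps training data, a prediction system for drug-induced liver injury; call rule not given here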;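 on HepSE cholecystitis: Cholecystitis-related hepatic side effect score drawn from the DILIps (drug-induced liver injury prediction) training data set; call rule not given here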;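 on HepSE cholelithiasis: hepatic side effect score for cholelithiasis, drawn from the DILIps training data for predicting drug-induced liver injury; call rule not given here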;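 on HepSE cirrhosis: cirrhosis hepatic side effect score taken from the DILIps (drug-induced liver injury prediction) training set; call rule not given here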;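 on HepSE elevated liver function tests: hepatic side effect score for raised liver function tests, as recorded in the DILIps training set used for predicting drug-induced liver injury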; on HepSE hepatic failure: call rule not given here
[4] = test system: Hepatotoxicity; remark: listed apart in the source;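 on HepSE bilirubinemia: bilirubinemia hepatic side effect score drawn from the DILIps training data, a prediction system for drug-induced liver injury; call rule not given here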;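 on HepSE cholecystitis: Cholecystitis-related hepatic side effect score drawn from the DILIps (drug-induced liver injury prediction) training data set; call rule not given here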;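 on HepSE cholelithiasis: hepatic side effect score for cholelithiasis, drawn from the DILIps training data for predicting drug-induced liver injury; call rule not given here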;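 on HepSE cirrhosis: cirrhosis hepatic side effect score taken from the DILIps (drug-induced liver injury prediction) training set; call rule not given here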;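 on HepSE elevated liver function tests: hepatic side effect score for raised liver function tests, as recorded in the DILIps training set used for predicting drug-induced liver injury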; on HepSE hepatic failure: call rule not given here
[5] = test system: Hepatotoxicity; remark: listed apart in the source; on HepSE hepatic failure: call rule not given here
[6] = test system: Hepatotoxicity; remark: listed apart in the source; on HepSE hepatic failure: call rule not given here
[7] = test system: Hepatotoxicity; remark: listed apart in the source
[8] = test system: Hepatotoxicity; remark: listed apart in the source
[9] = test system: Hepatotoxicity; remark: listed apart in the source
[10] = test system: Hepatotoxicity; remark: listed apart in the source
[11] = test system: Hepatotoxicity; remark: listed apart in the source
[12] = test system: Hepatotoxicity; remark: listed apart in the source
[13] = test system: Hepatotoxicity; remark: listed apart in the source
[14] = test system: Hepatotoxicity; remark: listed apart in the source

SMILES | HepSE_bilirubinemia [1] | HepSE_cholecystitis [2] | HepSE_cholelithiasis [3] | HepSE_cirrhosis [4] | HepSE_elevated liver function tests [5] | HepSE_hepatic failure [6] | HepSE_hepatic necrosis [7] | HepSE_hepatitis [8] | HepSE_hepatomegaly [9] | HepSE_jaundice [10] | HepSE_liver disease [11] | HepSE_liver fatty [12] | HepSE_liver function tests abnormal [13] | HepSE_Combined Scores [14]
CNC1=Nc2ccc(Cl)cc2C(c2ccccc2)=[N+]([O-])C1 [CHLORDIAZEPOXIDE] | 0 | 0 | 0 | 0 | 0 | 0 | 0 | 0 | 0 | 1 | 0 | 0 | 0 | 1
[H]/N=C(\N/C(=N/[H])NCCCCCCNC(=N)NC(=N)Nc1ccc(Cl)cc1)Nc1ccc(Cl)cc1 [CHLORHEXIDINE] | 0 | 0 | 0 | 0 | 0 | 0 | 0 | 0 | 0 | 0 | 0 | 0 | 0 | 0
CCN(CC)CCOC(=O)c1ccc(N)cc1Cl [CHLOROPROCAINE] | 0 | 0 | 0 | 0 | 0 | 0 | 0 | 0 | 0 | 0 | 0 | 0 | 0 | 0
CCN(CC)CCCC(C)Nc1ccnc2cc(Cl)ccc12 (configuration not stated) [CHLOROQUINE] | 0 | 0 | 0 | 0 | 0 | 0 | 0 | 0 | 0 | 0 | 0 | 0 | 0 | 0
NS(=O)(=O)c1cc2c(cc1Cl)N=CNS2(=O)=O [CHLOROTHIAZIDE] | 0 | 0 | 0 | 0 | 0 | 0 | 0 | 0 | 0 | 1 | 0 | 0 | 0 | 1
CN(C)CCC(c1ccc(Cl)cc1)c1ccccn1 (configuration not stated) [CHLORPHENIRAMINE] | 0 | 0 | 0 | 0 | 0 | 0 | 0 | 0 | 0 | 0 | 0 | 0 | 0 | 0
CN(C)CCCN1c2ccccc2Sc2ccc(Cl)cc21 [CHLORPROMAZINE] | 0 | 0 | 0 | 1 | 0 | 0 | 0 | 0 | 0 | 1 | 1 | 0 | 0 | 3
CCCNC(=O)NS(=O)(=O)c1ccc(Cl)cc1 [CHLORPROPAMIDE] | 0 | 0 | 0 | 0 | 0 | 0 | 0 | 0 | 0 | 1 | 0 | 0 | 0 | 1
NS(=O)(=O)c1cc(C2(O)NC(=O)c3ccccc32)ccc1Cl (configuration not stated) [CHLORTHALIDONE] | 0 | 0 | 0 | 0 | 0 | 0 | 0 | 0 | 0 | 1 | 0 | 0 | 0 | 1
C=C1CC[C@H](O)C/C1=C/C=C1\CCC[C@]2(C)[C@@H]([C@H](C)CCCC(C)C)CC[C@@H]12 [CHOLECALCIFEROL] | 0 | 0 | 0 | 0 | 0 | 0 | 0 | 0 | 0 | 0 | 0 | 0 | 0 | 0
CC(C)C(=O)OCC(=O)[C@@]12O[C@H](C3CCCCC3)O[C@@H]1C[C@H]1[C@@H]3CCC4=CC(=O)C=C[C@]4(C)[C@H]3[C@@H](O)C[C@@]12C [CICLESONIDE] | 0 | 0 | 0 | 0 | 0 | 0 | 0 | 0 | 0 | 0 | 0 | 0 | 0 | 0
Cc1cc(C2CCCCC2)n(O)c(=O)c1 [CICLOPIROX] | 0 | 0 | 0 | 0 | 0 | 0 | 0 | 0 | 0 | 0 | 0 | 0 | 0 | 0
Nc1ccn(C[C@@H](CO)OCP(=O)(O)O)c(=O)n1.O.O [CIDOFOVIR] | 0 | 0 | 0 | 0 | 0 | 0 | 1 | 1 | 1 | 1 | 0 | 0 | 0 | 4
